Assays:
[1] = In vivo pharmacokinetic studies in mice
pKa = format: physicochemical
[2] = system: P. berghei strain GFP ANKA; test: In vivo antimalarial activity, P. berghei infected malaria mouse model; set-up: species or system Plasmodium berghei (female NMRI mice)

pKa (pKa; pKa1, first pKa)	pKa (pKa; pKa2, second pKa)	SMILES	total systemic clearance relative to hepatic blood flow ([1]; mice, intravenous administration) [% hepatic blood flow]	exposure (AUC∞) greater than 9a ([1]; mice, oral, 20a vs 9a) [fold]	half-life ([1]; mouse, plasma) [min]	full cure (no parasites at day 30) ([2]; 3 × 30 mg/kg oral doses)	toxicity or behavioral changes after drug administration ([2]; treated mice, any dosing regimen)
5.2	10.6	C[C@H]1Cc2c([nH]c3cc(Cl)ccc23)[C@@]2(N1)C(=O)Nc1ccc(Cl)cc12 [Compound 18a, (1R,3S)-5′,7-Dichloro-3-methyl-2,3,4,9-tetrahydrospiro[β-carboline-1,3′-indol]-2′(1′H)-one]					
5.2		C[C@H]1CCc2c([nH]c3ccccc23)[C@@]2(N1)C(=O)Nc1ccc(Br)cc12 [Compound 1a, (1R,3S)-5′-Bromo-3-methyl-3,4,5,10-tetrahydro-2H-spiro[azepino[3,4-b]indole-1,3′-indol]-2′(1′H)-one]					
4.8		C[C@H]1Cc2c([nH]c3ccc(F)cc23)[C@@]2(N1)C(=O)Nc1ccc(Cl)cc12 [Compound 17a, (1R,3S)-5′-Chloro-6-fluoro-3-methyl-2,3,4,9-tetrahydrospiro[β-carboline-1,3′-indol]-2′(1′H)-one]					

SMILES	pKa (pKa; pKa1, first pKa)	pKa (pKa; pKa2, second pKa)	total systemic clearance relative to hepatic blood flow ([1]; mice, intravenous administration) [% hepatic blood flow]	exposure (AUC∞) greater than 9a ([1]; mice, oral, 20a vs 9a) [fold]	half-life ([1]; mouse, plasma) [min]	full cure (no parasites at day 30) ([2]; 3 × 30 mg/kg oral doses)	toxicity or behavioral changes after drug administration ([2]; treated mice, any dosing regimen)
C[C@H]1Cc2c([nH]c3cc(F)c(F)cc23)[C@@]2(N1)C(=O)Nc1ccc(Cl)cc12 [Compound 20a, (1R,3S)-5′-Chloro-6,7-difluoro-3-methyl-2,3,4,9-tetrahydrospiro[β-carboline-1,3′-indol]-2′(1′H)-one]	4.9		~10	18	180	four out of five mice	neither toxicity nor behavioral changes

Source: article PMC6996867 (Journal of Medicinal Chemistry, 2010)
